The values that follow are results of earlier work, collected in patent US20160215053A1, “CXCL12 (CHEMOKINE (C-X-C MOTIF) LIGAND 12) AND IGFBP2 INHIBITORS FOR THE APPLICATION IN THE TREATMENT OF DIABETES MELLITUS ASSOCIATED PANCREATIC CANCER” (priority 2013, published 2016).

“Also recorded” adds a separate entry of the source. Like-named read-outs stand apart in the source and are kept apart here. Where no end group is shown, it is not given here.

The test system of one data set is PSC. To be noted: literature references 19-31.
The subject of another data set is BxPC3 cells. Particulars: reference 40.

Regarding “gasztrin: factor that induces PSC activation/trans-differentiation (QGPWLEEEEEAYGWMDF; ends and bridges not checked; UniProt P01350 76-92, looked up)”, the “Effect on PSC” value is reported as “decreased proliferation” in the data set with PSC (cell proliferation) and “increased collagen synthesis,” in the data set with PSC (collagen synthesis).

Consider “Galektin-1: factor that induces PSC activation/trans-differentiation”, for which, in the data set with PSC, the “Effect on PSC” value was “increased proliferation”.

TNFα: the “Effect on PSC” value in the data set with PSC is “increased αSMA expression”.

On to “TGFα: factor that induces PSC activation/trans-differentiation”, for which the “Effect on PSC” value in the data set on PSC is listed as “increased proliferation, migration”.

Take `CCO` [Ethanol]: the “Effect on PSC” value in the data set with PSC is reported as “type-1 collagen production; also recorded: increased αSMA expression”.

Turning to `Nc1ccn([C@@H]2O[C@H](CO)[C@@H](O)C2(F)F)c(=O)n1` [gemcitabine], the “Proportion of cancer cells undergoing gemcitabine induced apoptosis” value in the data set on BxPC3 cells (BxPC3 cells treated with hPSC-CM) is listed as 9.4%; in the data set with BxPC3 cells (BxPC3 cells, without hPSC-CM treatment), 38.9%.

On to PDGF, for which the “Effect on PSC” value in the data set on PSC (cell proliferation) is “increased proliferation”; in the data set with PSC (fibronectin synthesis) it was “increased FN synthesis”.

Turning to `CCCCC[C@H](O)/C=C/[C@H]1[C@H](O)CC(=O)[C@@H]1C/C=C\CCCC(=O)O` [Prosztaglandin E2], the “Effect on PSC” value in the data set with PSC is “increased proliferation, migration”.

On to `CC=O` [Acetaldehide], for which the “Effect on PSC” value in the data set with PSC is given as “increased αSMA expression”.

As for “bFGF: factor that induces PSC activation/trans-differentiation”, the “Effect on PSC” value in the data set with PSC is given as “increased proliferation”.

B1: Activin A: factor that induces PSC activation/trans-differentiation (protein, UniProt P08476 311-426, looked up)
Inhibin beta A chain: GLECDGKVNICCKKQFFVSFKDIGWNDWIIAPSGYHANYCEGECPSHIAGTSGSSLSFHSTVINHYRMRGHSPFANLKSCCVPTKLRPMSMLYYDDGQNIIKKDIQNMIVEECGCS
modifications: Inhibin beta A chain
In the case of B1, the “Effect on PSC” value in the data set with PSC is “increased αSMA expression”.

B2: CCK: factor that induces PSC activation/trans-differentiation (peptide, UniProt P06307 21-115, looked up)
Cholecystokinin: QPVPPADPAGSGLQRAEEAPRRQLRVSQRTDGESRAHLGALLARYIQQARKAPSGRMSIVKNLQNLDPSHRISDRDYMGWMDFGRRSAEEYEYPS
modifications: Cholecystokinin
Take B2: the results for the “Effect on PSC” value in the data set on PSC (cell proliferation) and in the data set with PSC (collagen synthesis) were “decreased proliferation” and “increased collagen synthesis,”, respectively.

B3: IL-10: factor that induces PSC activation/trans-differentiation (protein, UniProt P22301 19-178, looked up)
Interleukin-10: SPGQGTQSENSCTHFPGNLPNMLRDLRDAFSRVKTFFQMKDQLDNLLLKESLLEDFKGYLGCQALSEMIQFYLEEVMPQAENQDPDIKAHVNSLGENLKTLRLRLRRCHRFLPCENKSKAVEQVKNAFNKLQEKGIYKAMSEFDIFINYIEAYMTMKIRN
Turning to B3, the “Effect on PSC” value with PSC is on record as “increased type-1 collagen production”.
